Test results as given in patent publication US4452784A, “C-23-Modified derivatives of DMT” (Eli Lilly and Company, priority 1982, dated 1984).
Values after ≈ are worked out from the molar mass of the structure shown. Read-outs that look alike come from different tables or passages of the source.

Assays:
[1] = test system: Streptococcus pyogenes C203; test: ED50 in mice experimentally infected with S. pyogenes C203; assay type: in vivo; details: doses given 1 and 4 hours postinfection
Experimental: The C-23 modified derivatives of DMT of this invention have shown in vivo antimicrobial activity against experimentally-induced infections in laboratory animals. When two doses of test compound were administered to mice experimentally infected with S. pyogenes C203, the activity observed was measured as an ED50 value [effective dose in mg/kg to protect 50% of the test animals: see Warren Wick, et al., J. Bacteriol. 81, 233-235 (1961)].
^a mg/kg × 2; doses given 1 and 4 hours postinfection

[2] = test system: Streptococcus pyogenes C203; test: Antibiotic activity, standard agar-dilution assay (MIC); assay type: cell-based; details: S. pyogenes C203
Experimental: (§1) The MIC's in Table III were determined by standard agar-dilution assays. The MIC's in Table IV were obtained using a conventional broth-dilution microtiter test.
(§2) Antibiotic Activity of C-23 Modified Derivatives of DMT^a

[3] = test system: Haemophilus influenzae Holt; test: as above; assay type: cell-based; details: H. influenzae Holt, ampicillin-sensitive strain
Experimental: as §1, §2

[4] = test system: Staphylococcus aureus S13E; test: as above; assay type: cell-based
Experimental: as §1, §2

[5] = test system: Staphylococcus aureus V41; test: as above; assay type: cell-based
Experimental: as §1, §2

[6] = test system: Staphylococcus epidermidis EPI1; test: as above; assay type: cell-based; details: S. epidermidis EPI1
Experimental: as §1, §2

Streptococcus Group 9960 = test: as above; assay type: cell-based; details: GROUP9960
Experimental: as §1, §2

[7] = test system: Streptococcus Group D X66; test: as above; assay type: cell-based
Experimental: as §1, §2

[8] = test system: Haemophilus influenzae R52; test: as above; assay type: cell-based; details: H. influenzae R52, ampicillin-resistant strain
Experimental: as §1, §2

[9] = test system: Staphylococcus epidermidis EPI2; test: as above; assay type: cell-based; details: S. epidermidis EPI2
Experimental: as §1, §2

[10] = test system: Staphylococcus aureus X1.1; test: as above; assay type: cell-based; details: S. aureus X1.1
Experimental: as §1, §2

[11] = test system: Streptococcus pneumoniae Park I; test: as above; assay type: cell-based; details: S. pneumoniae Park I
Experimental: as §1, §2

[12] = test system: Staphylococcus aureus X400; test: as above; assay type: cell-based
Experimental: as §1, §2

Streptococcus bovis 80 = test: Antibiotic activity, broth-dilution microtiter test (MIC); assay type: cell-based; details: S. bovis 80
Experimental: as §1
(§3) Antibiotic Activity of DMT Derivatives^a

[13] = test system: Pasteurella hemolytica 22C; test: as above; assay type: cell-based
Experimental: as §1, §3

[14] = test system: Pasteurella multocida 17E; test: as above; assay type: cell-based; details: P. multocida 17E, bovine isolate
Experimental: as §1, §3

Staphylococcus aureus = test: as above; assay type: cell-based; details: S. aureus
Experimental: as §1, §3

Mycoplasma synoviae = test: as above; assay type: cell-based; details: Mycoplasmopsis synoviae, M. synoviae
Experimental: as §1, §3

Mycoplasma gallisepticum [15] = test: as above; assay type: cell-based; details: Mycoplasmoides gallisepticum, M. gallisepticum
Experimental: as §1, §3

[16] = test system: Pasteurella multocida 40G; test: as above; assay type: cell-based; details: P. multocida 40G
Experimental: as §1, §3

[17] = test system: Pasteurella hemolytica 41D; test: as above; assay type: cell-based; details: P. hemolytica 41D
Experimental: as §1, §3

[18] = test system: Pasteurella multocida 60A; test: as above; assay type: cell-based; details: P. multocida 60A, avian isolate
Experimental: as §1, §3

[19] = test system: Pasteurella multocida 22A; test: as above; assay type: cell-based; details: P. multocida 22A
Experimental: as §1, §3

[20] = test system: Pasteurella hemolytica 23C; test: as above; assay type: cell-based; details: P. hemolytica 23C
Experimental: as §1, §3

[21] = test system: Pasteurella multocida 68C; test: as above; assay type: cell-based; details: P. multocida 68C
Experimental: as §1, §3

Mycoplasma hyorhinis = test: as above; assay type: cell-based
Experimental: as §1, §3

Mycoplasma gallisepticum [22] = test: Antimycoplasmal activity of DMT derivatives in chicks; assay type: in vivo; details: for Number with Antibodies/Number Tested: antibodies to M. gallisepticum
Experimental: In these tests infections were induced in chicks by injecting 0.2 ml. of a broth culture of M. gallisepticum into the abdominal air sac of two- to three-day-old chicks. The compounds were administered subcutaneously at a dose of 60 mg/kg once only on the day of infection or, at the same level, two times on the day of infection and two times on the first day post-infection. Twenty-one days post-infection, the chicks were weighed, a blood sample was taken, and the chicks were sacrificed. The presence or absence of air-sac lesions was recorded.

[23] = agar dilution, S. aureus V41, penicillin-resistant strain, read-out: MIC
[24] = agar dilution, Streptococcus Group D X66, read-out: MIC
[25] = agar dilution, S. aureus X400, methicillin-resistant strain, read-out: MIC
[26] = broth-dilution microtiter, P. hemolytica 22C, read-out: MIC
[27] = broth-dilution microtiter, M. hyorhinis, read-out: MIC
[28] = subcutaneous 60 mg/kg × 1, 21 days post-infection
[29] = subcutaneous 60 mg/kg × 4, 21 days post-infection

| SMILES | ED50 ([1]; C203, oral) [mg/kg] | ED50 ([1]; C203, sc, subcutaneous) [mg/kg] | MIC [2] [µg/mL] | MIC [3] [µg/mL] | MIC [4] [µg/mL] | MIC [6] [µg/mL] | MIC (Streptococcus Group 9960) [µg/mL] | MIC [9] [µg/mL] | MIC [10] [µg/mL] | MIC [11] [µg/mL] | MIC (Streptococcus bovis 80) [µg/mL] | MIC [14] [µg/mL] | MIC (Staphylococcus aureus) [µg/mL] | MIC (Mycoplasma synoviae) [µg/mL] | MIC (Mycoplasma gallisepticum [15]) [µg/mL] | MIC [16] [µg/mL] | MIC [17] [µg/mL] | MIC [18] [µg/mL] | MIC [19] [µg/mL] | MIC [20] [µg/mL] | also measured |
| --- | --- | --- | --- | --- | --- | --- | --- | --- | --- | --- | --- | --- | --- | --- | --- | --- | --- | --- | --- | --- | --- |
| CCC1OC(=O)CC(O)C(C)C(OC2OC(C)C(OC3CC(C)(O)C(O)C(C)O3)C(N(C)C)C2O)C(CC=O)CC(C)C(=O)C=CC(C)=CC1CN (centres unmarked) [Compound 2, 23-Deoxy-23-amino-DMT] | > 100 | < 1.5 | 1 (≈ 1.35 µM) | 16 (≈ 21.6 µM) | 4 (≈ 5.4 µM) | 4 (≈ 5.4 µM) | 8 (≈ 10.8 µM) | 8 (≈ 10.8 µM) | 2 (≈ 2.7 µM) | 0.5 (≈ 0.675 µM) | 1.56 (≈ 2.11 µM) | 6.25 (≈ 8.44 µM) | 6.25 (≈ 8.44 µM) | 0.78 (≈ 1.05 µM) | 1.56 (≈ 2.11 µM) | 12.5 (≈ 16.9 µM) | 12.5 (≈ 16.9 µM) | 12.5 (≈ 16.9 µM) | 12.5 (≈ 16.9 µM) | 12.5 (≈ 16.9 µM) | MIC [5, 23]: 8 µg/mL (≈ 10.8 µM); MIC [7, 24]: 8 µg/mL (≈ 10.8 µM); MIC [8]: 16 µg/mL (≈ 21.6 µM); MIC [12, 25]: 8 µg/mL (≈ 10.8 µM); MIC [13, 26]: 25 µg/mL (≈ 33.7 µM); MIC [21]: 12.5 µg/mL (≈ 16.9 µM); MIC (Mycoplasma hyorhinis; [27]): 25 µg/mL (≈ 33.7 µM) |
| CCC1OC(=O)CC(O)C(C)C(OC2OC(C)C(OC3CC(C)(O)C(O)C(C)O3)C(N(C)C)C2O)C(CC=O)CC(C)C(=O)C=CC(C)=CC1CN=[N+]=[N-] (centres unmarked) [Compound 1, 23-Deoxy-23-Azido-DMT] | 68 | 10.5 | 0.125 (≈ 0.163 µM) | 8 (≈ 10.4 µM) | 0.25 (≈ 0.326 µM) | 0.25 (≈ 0.326 µM) | 0.25 (≈ 0.326 µM) | 0.25 (≈ 0.326 µM) | 0.25 (≈ 0.326 µM) | 0.06 (≈ 0.0782 µM) | 0.39 (≈ 0.509 µM) | 6.25 (≈ 8.15 µM) | 1.56 (≈ 2.03 µM) | 0.78 (≈ 1.02 µM) | 0.19 (≈ 0.248 µM) | 6.25 (≈ 8.15 µM) | 25 (≈ 32.6 µM) | 6.25 (≈ 8.15 µM) | 12.5 (≈ 16.3 µM) | 25 (≈ 32.6 µM) | Number with Antibodies/Number Tested (Mycoplasma gallisepticum [22]; [28]): 5/10; Number with Antibodies/Number Tested (Mycoplasma gallisepticum [22]; [29]): 0/10; Mortality (Mycoplasma gallisepticum [22]; [28]): 0/10; Number with Air-Sac Lesions/Number Treated (Mycoplasma gallisepticum [22]; [28]): 3/10; Mortality (Mycoplasma gallisepticum [22]; [29]): 0/10; Number with Air-Sac Lesions/Number Treated (Mycoplasma gallisepticum [22]; [29]): 0/10; MIC [5, 23]: 0.25 µg/mL (≈ 0.326 µM); MIC [7]: 0.5 µg/mL (≈ 0.652 µM); MIC [8]: 8 µg/mL (≈ 10.4 µM); MIC ([12]; X400): 0.5 µg/mL (≈ 0.652 µM); MIC ([13]; 22C): 25 µg/mL (≈ 32.6 µM); MIC [21]: 6.25 µg/mL (≈ 8.15 µM); MIC (Mycoplasma hyorhinis): > 50 µg/mL |
| CCC1OC(=O)CC(O)C(C)C(OC2OC(C)C(OC3CC(C)(O)C(O)C(C)O3)C(N(C)C)C2O)C(CC=O)CC(C)C(=O)C=CC(C)=CC1CSc1ccccc1 (centres unmarked) [Compound 4, 23-Deoxy-23-(phenyl)thio-DMT] | 71 | < 25 | 0.125 (≈ 0.15 µM) | 4 (≈ 4.8 µM) | 0.5 (≈ 0.599 µM) | 0.5 (≈ 0.599 µM) | 0.125 (≈ 0.15 µM) | 0.5 (≈ 0.599 µM) | 0.5 (≈ 0.599 µM) | 0.03 (≈ 0.036 µM) | 0.19 (≈ 0.228 µM) | 6.25 (≈ 7.49 µM) | 0.39 (≈ 0.468 µM) | 0.19 (≈ 0.228 µM) | ≤ 0.05 | 6.25 (≈ 7.49 µM) | 12.5 (≈ 15 µM) | 6.25 (≈ 7.49 µM) | 12.5 (≈ 15 µM) | 25 (≈ 30 µM) | Number with Antibodies/Number Tested (Mycoplasma gallisepticum [22]; [28]): 8/10; Number with Antibodies/Number Tested (Mycoplasma gallisepticum [22]; [29]): 7/10; Mortality (Mycoplasma gallisepticum [22]; [28]): 0/10; Number with Air-Sac Lesions/Number Treated (Mycoplasma gallisepticum [22]; [28]): 7/10; Mortality (Mycoplasma gallisepticum [22]; [29]): 0/10; Number with Air-Sac Lesions/Number Treated (Mycoplasma gallisepticum [22]; [29]): 3/10; MIC [5, 23]: 0.25 µg/mL (≈ 0.3 µM); MIC [7, 24]: 0.25 µg/mL (≈ 0.3 µM); MIC [12, 25]: 0.5 µg/mL (≈ 0.599 µM); MIC [13, 26]: 25 µg/mL (≈ 30 µM); MIC [21]: 12.5 µg/mL (≈ 15 µM); MIC (Mycoplasma hyorhinis; [27]): 0.78 µg/mL (≈ 0.935 µM) |
| CCC1OC(=O)CC(O)C(C)C(OC2OC(C)C(OC3CC(C)(O)C(O)C(C)O3)C(N(C)C)C2O)C(CC=O)CC(C)C(=O)C=CC(C)=CC1CNC(=O)Cc1ccccc1 (centres unmarked) [Compound 3, 23-Deoxy-23-(phenylacetyl)amino-DMT] | > 100 | 3.8 | 0.25 (≈ 0.291 µM) | 8 (≈ 9.31 µM) | 0.5 (≈ 0.582 µM) | 0.5 (≈ 0.582 µM) | 0.5 (≈ 0.582 µM) | 1 (≈ 1.16 µM) | 0.5 (≈ 0.582 µM) | 0.25 (≈ 0.291 µM) | 0.19 (≈ 0.221 µM) | 12.5 (≈ 14.6 µM) | 1.56 (≈ 1.82 µM) | 0.39 (≈ 0.454 µM) | 0.09 (≈ 0.105 µM) | 25 (≈ 29.1 µM) | 25 (≈ 29.1 µM) | 25 (≈ 29.1 µM) | 50 (≈ 58.2 µM) | 25 (≈ 29.1 µM) | Number with Antibodies/Number Tested (Mycoplasma gallisepticum [22]; [28]): 8/9; Number with Antibodies/Number Tested (Mycoplasma gallisepticum [22]; [29]): 3/10; Mortality (Mycoplasma gallisepticum [22]; [28]): 1/10; Number with Air-Sac Lesions/Number Treated (Mycoplasma gallisepticum [22]; [28]): 8/10; Mortality (Mycoplasma gallisepticum [22]; [29]): 0/10; Number with Air-Sac Lesions/Number Treated (Mycoplasma gallisepticum [22]; [29]): 0/10; MIC ([5]; V41): 1 µg/mL (≈ 1.16 µM); MIC [7, 24]: 0.5 µg/mL (≈ 0.582 µM); MIC [8]: 8 µg/mL (≈ 9.31 µM); MIC ([12]; X400): 1 µg/mL (≈ 1.16 µM); MIC [13, 26]: 50 µg/mL (≈ 58.2 µM); MIC [21]: 25 µg/mL (≈ 29.1 µM); MIC (Mycoplasma hyorhinis; [27]): 1.56 µg/mL (≈ 1.82 µM) |
